Assay results taken from publication PMC11574021, “CEP192 localises mitotic Aurora-A activity by priming its interaction with TPX2” (The EMBO Journal, 2024).

Experiments:
Assay type in all cases: cell-based, Homo sapiens
Eg5 in RPE1 p53-/- cells = test: Immunofluorescence, Eg5 spindle signal intensity, RPE1 p53-/-; settings: Aurora-A inhibitor 30 min (500 nM)
Experimental: (§1) As noted in the figures, the following drugs were incubated with cells for 30 min at 37 °C: Aurora-B-i ZM447439 2 µM [10 mM], PLK1-I BI2536 1 µM [10 mM] and Aurora-A-i MLN8237 [5 mM] was used at 250 and 500 nM in U251 and RPE1 cells, respectively. Drugs were resuspended in DMSO to the stock concentrations indicated in square brackets. BI2536 (HY-50698), MLN8237 (HY-10971) and ZM447439 (HY-10128) were all purchased from MedChemExpress. For western blotting, a 20-min pre-treatment with proteasome inhibitor (20 µM MG-132, MerckMillipore, 47490 [20 mM]) was required prior to the addition of DMSO control or kinase inhibitors. This prevented mitotic exit as a consequence of checkpoint override following Aurora-A and Aurora-B inhibitor addition.
(§2) For siRNA depletion, 1 × 10^5 cells were seeded in six-well plates and transfected as described above for 48 h prior to fixation. For all other experiments, 2.5 × 10^5 cells were seeded in six-well plates and grown for 24 h before fixation. All cells were grown on 12 mm diameter glass coverslips (VWR, 631–1577). […]
(§3) For CEP192, LATS2-pS83, PCNT, PLK1 and γ-tubulin intensity, a 20-pixel diameter circle was centred over each centrosome and the intensity measured. […]

[1] = system: NuMA in RPE1 p53-/- cells; test: Immunofluorescence, NuMA spindle pole signal intensity, RPE1 p53-/-; settings: Aurora-A inhibitor 30 min (500 nM), compared with RΔ11
Experimental: as §1, §2, §3

[2] = system: PLK1 in RPE1 p53-/- cells; test: Immunofluorescence, PLK1 centrosomal signal intensity, RPE1 p53-/-; settings: Aurora-A inhibitor 30 min
Experimental: as §1, §2, §3

[3] = system: PLK1-pT210 in RPE1 p53-/- cells; test: Western blot densitometry, PLK1-pT210, RPE1 p53-/-; settings: mitotic RPE1 p53-/- lysates, inhibitor 30 min
Experimental: For measuring monopolar spindle diameter and counting centriolar foci by immunofluorescence, cells were treated with 10 µM STLC for 1 h and 4 h prior to fixation, respectively.
Drugs were resuspended in DMSO to the stock concentrations indicated in square brackets.
Cells were lysed on ice for 30 min in lysis buffer (50 mM tris pH 8.0, 300 mM NaCl, 0.2%(v/v) NP-40, 10%(v/v) glycerol, protease inhibitor cocktail C, phosphatase inhibitor cocktail 3 (Sigma, 1:200 dilution), 100 nM okadaic acid (Enzo, ALX-350-003-C100)). Lysates were then centrifuged at 14,000 × g, 15 min, 4 °C, the supernatants were transferred to a fresh tube, and the pellet was discarded. Protein concentrations were measured by Bradford assay using Protein Assay Dye Reagent Concentrate (Bio-Rad Laboratories, 5000006). NuPage LDS sample buffer, supplemented with NuPAGE sample reducing agent (Invitrogen) were added prior to boiling for 10 min at 90 °C. […] Nitrocellulose was then blocked in 5% milk (wt/v) in TBS, 0.1% Tween (v/v) (TBST) for 1 h. Primary and secondary antibodies were diluted in 5% milk, TBST and incubated overnight at 4 °C or for 1 h at room temperature, respectively. […]
Densitometric quantification of western blots was also performed in ImageJ. Intensity was measured in a rectangular region of interest (ROI) around each band. […] An adjacent region was also measured to account for background intensity.

COc1cc(Nc2ncc3c(n2)-c2ccc(Cl)cc2C(c2c(F)cccc2OC)=NC3)ccc1C(=O)O [Alisertib]
spindle levels of Eg5 (Eg5 in RPE1 p53-/- cells): decrease in spindle levels of Eg5 | NuMA levels at spindle poles [1]: equally high in R∆11 and Aurora-A inhibitor-treated cells | centrosomal Plk1 levels [2]: negative trend | T-loop phosphorylation of PLK1 (pT210) [3]: decreased
